Experimental data from patent US10336739B2, “4-hydroxy-3-(heteroaryl)pyridine-2-one APJ agonists” (BRISTOL-MYERS SQUIBB COMPANY, priority 2015, dated 2019).

Target: human APJ receptor (Homo sapiens (Human), UniProt P35414)
Assay: Intracellular cAMP accumulation assay (APJ hcAMP, HTRF)
Assay type: cell-based
Details: HEK293 cells stably expressing human APJ receptor; inhibition of forskolin-mediated cAMP production; read-out: hAPJ cAMP EC50 (nM) Potency range
Method: Intracellular cAMP Accumulation Assay
HEK293 cells stably expressing human APJ receptor were used to assess the activity of compounds. Cultured cells were detached and resuspended in the cAMP Homogeneous Time-Resolved Fluorescence (HTRF) assay buffer (Cisbio cat; #62AM4PEJ). The assay was performed in 384-well assay plates (Perkin-Elmer; cat #6008289) according to assay protocol provided by the manufacturer. Serial dilutions of a compound together with assay buffer containing […] and 2 μM forskolin were added to each well containing 5,000 cells and incubated for 30 minutes at room temperature. Subsequently, cAMP D2 reagent was added in the lysis buffer followed by the EuK antibody (Cisbio; cat #62AM4PEJ) and incubated for 60 min. The fluorescence emission ratio was measured using fluorometer. The intracellular cAMP concentrations (compound-stimulated inhibition of forskolin-mediated cAMP production) were calculated by extrapolation from a standard curve using known cAMP concentrations. The EC50 values were obtained by fitting the data to a sigmoidal concentration-response curve with variable slope.

Sequence of human APJ receptor (P35414 whole entry): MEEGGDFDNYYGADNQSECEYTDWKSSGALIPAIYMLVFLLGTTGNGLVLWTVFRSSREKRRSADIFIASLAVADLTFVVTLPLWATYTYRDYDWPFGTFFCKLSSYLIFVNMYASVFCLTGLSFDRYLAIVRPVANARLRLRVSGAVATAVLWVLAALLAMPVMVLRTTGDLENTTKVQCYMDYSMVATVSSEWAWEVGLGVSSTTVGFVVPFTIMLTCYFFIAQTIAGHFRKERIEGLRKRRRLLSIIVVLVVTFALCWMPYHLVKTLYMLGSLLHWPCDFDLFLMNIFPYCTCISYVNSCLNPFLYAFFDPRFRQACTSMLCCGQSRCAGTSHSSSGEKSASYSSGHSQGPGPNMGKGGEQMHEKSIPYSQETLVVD

Compound | EC50 [nM]
CCOCc1nc(O)c(-c2nnc(Cc3ccc(Cl)cc3)s2)c(O)c1-c1c(OC)cccc1OC [Example 234, 3-{5-[(4-chlorophenyl)-methyl]-1,3,4-thiadiazol-2-yl}-5-(2,6-dimethoxyphenyl)-6-(ethoxymethyl)-pyridine-2,4-diol] | 10 to 100
CCCCc1nc(O)c(-c2nnc(CC(=O)NCc3cccnc3)o2)c(O)c1-c1c(OC)cccc1OC [Example 255, 2-{5-[6-butyl-5-(2,6-dimethoxyphenyl)-2,4-dihydroxy-pyridin-3-yl]-1,3,4-oxadiazol-2-yl}-N-[(pyridin-3-yl)methyl] acetamide] | 0.01 to 10
CCCCc1nc(O)c(-c2nnc(CC(=O)NCc3ccc(N(C)C)cc3)o2)c(O)c1-c1c(OC)cccc1OC [Example 270, 2-{5-[6-butyl-5-(2,6-dimethoxyphenyl)-2,4-dihydroxy-pyridin-3-yl]-1,3,4-oxadiazol-2-yl}-N-{[4-(dimethylamino)phenyl]methyl} acetamide] | 0.01 to 10
CCCCc1nc(O)c(-c2nnc(CC(=O)N(C)Cc3ccccc3)o2)c(O)c1-c1c(OC)cccc1OC [Example 260, N-benzyl-2-{5-[6-butyl-5-(2,6-dimethoxyphenyl)-2,4-dihydroxy-pyridin-3-yl]-1,3,4-oxadiazol-2-yl}-N-methylacetamide] | 0.01 to 10
COc1cccc(OC)c1-c1c(C2CCCC2)nc(O)c(-c2nnc(Cc3ccc(Cl)cn3)s2)c1O [Example 233, 3-{5-[(5-chloropyridin-2-yl)methyl]-1,3,4-thiadiazol-2-yl}-6-cyclopentyl-5-(2,6-dimethoxyphenyl) pyridine-2,4-diol] | 10 to 100

Same assay, conditions: HEK293 cells stably expressing human APJ receptor; inhibition of forskolin-mediated cAMP production; read-out: hAPJ cAMP EC50 Potency range

Compound | EC50 [nM]
CCCCc1nc(O)c(-c2nnc(Cc3csc(-c4ccc(Cl)cc4)n3)o2)c(O)c1-c1c(OC)cccc1OC [Example 39, 6-butyl-3-(5-{[2-(4-chlorophenyl)-1,3-thiazol-4-yl]methyl}-1,3,4-oxadiazol-2-yl)-5-(2,6-dimethoxyphenyl) pyridine-2,4-diol] | 10 to 100
CCCCc1nc(O)c(-c2nnc(C3(c4ccccc4)CC3)o2)c(O)c1-c1c(OC)cccc1OC [Example 13, 6-butyl-5-(2,6-dimethoxyphenyl)-3-[5-(1-phenylcyclopropyl)-1,3,4-oxadiazol-2-yl]pyridine-2,4-diol] | 10 to 100
COc1cccc(OC)c1-c1c(C2CC2)nc(O)c(-c2nnc(Cc3nc(-c4ccccn4)no3)o2)c1O [Example 95, 6-cyclopropyl-5-(2,6-dimethoxyphenyl)-3-(5-{[3-(pyridin-2-yl)-1,2,4-oxadiazol-5-yl]methyl}-1,3,4-oxadiazol-2-yl)pyridine-2,4-diol] | 0.01 to 10
CCCCc1nc(O)c(-c2nnc(-c3cccc(Cl)c3)o2)c(O)c1-c1c(OC)cccc1OC [Example 10, 6-butyl-3-[5-(3-chlorophenyl)-1,3,4-oxadiazol-2-yl]-5-(2,6-dimethoxyphenyl) pyridine-2,4-diol] | 10 to 100
CCCCc1nc(O)c(-c2nnc(CC(C)(C)c3ccc(Cl)cc3)o2)c(O)c1-c1c(OC)cccc1OC [Example 54, 6-butyl-3-{5-[2-(4-chlorophenyl)-2-methylpropyl]-1,3,4-oxadiazol-2-yl}-5-(2,6-dimethoxyphenyl) pyridine-2,4-diol] | 0.01 to 10
CCOCc1nc(O)c(-c2nnc(Cc3noc4ccccc34)o2)c(O)c1-c1c(OC)cccc1OC [Example 89, 3-[5-(1,2-benzoxazol-3-ylmethyl)-1,3,4-oxadiazol-2-yl]-5-(2,6-dimethoxyphenyl)-6-(ethoxymethyl) pyridine-2,4-diol] | 0.01 to 10
CCCCc1nc(O)c(-c2nnc(Cc3ccc(F)c(F)c3)o2)c(O)c1-c1cccc(OC)c1 [Example 139, 6-butyl-3-{5-[(3,4-difluorophenyl)methyl]-1,3,4-oxadiazol-2-yl}-5-(3-methoxyphenyl) pyridine-2,4-diol] | 10 to 100
CCCCc1nc(O)c(-c2nnc(CCc3nc(-c4ccc(OC)cc4)no3)o2)c(O)c1-c1c(OC)cccc1OC [Example 60, 6-butyl-5-(2,6-dimethoxyphenyl)-3-(5-{2-[3-(4-methoxyphenyl)-1,2,4-oxadiazol-5-yl]ethyl}-1,3,4-oxadiazol-2-yl)pyridine-2,4-diol] | 10 to 100
CCCCc1nc(O)c(-c2nnc(Cc3noc4ccccc34)o2)c(O)c1-c1c(CC)cccc1CC [Example 226, 3-[5-(1,2-benzoxazol-3-ylmethyl)-1,3,4-oxadiazol-2-yl]-6-butyl-5-(2,6-diethylphenyl) pyridine-2,4-diol] | 0.01 to 10
CCOCc1nc(O)c(-c2nnc(Cc3ccc(Cl)cc3F)o2)c(O)c1-c1c(OC)cccc1OC [Example 123, 3-{5-[(4-chloro-2-fluorophenyl)methyl]-1,3,4-oxadiazol-2-yl}-5-(2,6-dimethoxyphenyl)-6-(ethoxymethyl) pyridine-2,4-diol] | 0.01 to 10
CCCCc1nc(O)c(-c2nnc(C3CC3)o2)c(O)c1-c1c(OC)cccc1OC [Example 14, 6-butyl-3-(5-cyclopropyl-1,3,4-oxadiazol-2-yl)-5-(2,6-dimethoxyphenyl) pyridine-2,4-diol] | 100 to 300
CCCCc1nc(O)c(-c2nnc(Cc3ccc(F)c(F)c3)o2)c(O)c1-c1c(OC)cccc1OC [Example 38, 6-butyl-3-{5-[(3,4-difluorophenyl)methyl]-1,3,4-oxadiazol-2-yl}-5-(2,6-dimethoxyphenyl) pyridine-2,4-diol] | 0.01 to 10
COc1cccc(OC)c1-c1c(C2CC2)nc(O)c(-c2nnc(Cc3noc4ccccc34)o2)c1O [Example 92, 3-[5-(1,2-benzoxazol-3-ylmethyl)-1,3,4-oxadiazol-2-yl]-6-cyclopropyl-5-(2,6-dimethoxyphenyl) pyridine-2,4-diol] | 10 to 100
CCCCc1[nH]c(=O)c(-c2nnc(Cc3csc(C)n3)o2)c(O)c1-c1cccc(N2CCCC2)c1 [Example 153, 6-butyl-4-hydroxy-3-{5-[(2-methyl-1,3-thiazol-4-yl)methyl]-1,3,4-oxadiazol-2-yl}-5-[3-(pyrrolidin-1-yl)phenyl]-1,2-dihydropyridin-2-one] | 10 to 100
CCCCc1nc(O)c(-c2nnc(CCc3nc(-c4ccccn4)no3)o2)c(O)c1-c1c(OC)cccc1OC [Example 83, 6-butyl-5-(2,6-dimethoxyphenyl)-3-(5-{2-[3-(pyridin-2-yl)-1,2,4-oxadiazol-5-yl]ethyl}-1,3,4-oxadiazol-2-yl)pyridine-2,4-diol] | 0.01 to 10
CCCCc1nc(O)c(-c2nnc(C(c3ccc(F)cc3)N(C)C)o2)c(O)c1-c1c(OC)cccc1OC (centres unmarked) [Example 88, 6-butyl-5-(2,6-dimethoxyphenyl)-3-{5-[(dimethylamino) (4-fluorophenyl)methyl]-1,3,4-oxadiazol-2-yl}pyridine-2,4-diol] | 0.01 to 10
CCCCc1nc(O)c(-c2nnc(Cc3ccc(F)c(C(F)(F)F)c3)o2)c(O)c1-c1c(OC)cccc1OC [Example 34, 6-butyl-5-(2,6-dimethoxyphenyl)-3-(5-{[4-fluoro-3-(trifluoromethyl)phenyl]methyl}-1,3,4-oxadiazol-2-yl)pyridine-2,4-diol] | 10 to 100
CCOCc1nc(O)c(-c2nnc(Cc3ccc(F)cn3)o2)c(O)c1-c1c(OC)cccc1OC [Example 124, 5-(2,6-dimethoxyphenyl)-6-(ethoxymethyl)-3-{5-[(5-fluoropyridin-2-yl)methyl]-1,3,4-oxadiazol-2-yl}pyridine-2,4-diol] | 0.01 to 10
